One test has as its target T1, Prep1/p160 complex (Rattus norvegicus, UniProt O35821).
T1 construct: endogenous in cells; host or cells: L6 rat skeletal muscle cells
T1 sequence (O35821 1-1344): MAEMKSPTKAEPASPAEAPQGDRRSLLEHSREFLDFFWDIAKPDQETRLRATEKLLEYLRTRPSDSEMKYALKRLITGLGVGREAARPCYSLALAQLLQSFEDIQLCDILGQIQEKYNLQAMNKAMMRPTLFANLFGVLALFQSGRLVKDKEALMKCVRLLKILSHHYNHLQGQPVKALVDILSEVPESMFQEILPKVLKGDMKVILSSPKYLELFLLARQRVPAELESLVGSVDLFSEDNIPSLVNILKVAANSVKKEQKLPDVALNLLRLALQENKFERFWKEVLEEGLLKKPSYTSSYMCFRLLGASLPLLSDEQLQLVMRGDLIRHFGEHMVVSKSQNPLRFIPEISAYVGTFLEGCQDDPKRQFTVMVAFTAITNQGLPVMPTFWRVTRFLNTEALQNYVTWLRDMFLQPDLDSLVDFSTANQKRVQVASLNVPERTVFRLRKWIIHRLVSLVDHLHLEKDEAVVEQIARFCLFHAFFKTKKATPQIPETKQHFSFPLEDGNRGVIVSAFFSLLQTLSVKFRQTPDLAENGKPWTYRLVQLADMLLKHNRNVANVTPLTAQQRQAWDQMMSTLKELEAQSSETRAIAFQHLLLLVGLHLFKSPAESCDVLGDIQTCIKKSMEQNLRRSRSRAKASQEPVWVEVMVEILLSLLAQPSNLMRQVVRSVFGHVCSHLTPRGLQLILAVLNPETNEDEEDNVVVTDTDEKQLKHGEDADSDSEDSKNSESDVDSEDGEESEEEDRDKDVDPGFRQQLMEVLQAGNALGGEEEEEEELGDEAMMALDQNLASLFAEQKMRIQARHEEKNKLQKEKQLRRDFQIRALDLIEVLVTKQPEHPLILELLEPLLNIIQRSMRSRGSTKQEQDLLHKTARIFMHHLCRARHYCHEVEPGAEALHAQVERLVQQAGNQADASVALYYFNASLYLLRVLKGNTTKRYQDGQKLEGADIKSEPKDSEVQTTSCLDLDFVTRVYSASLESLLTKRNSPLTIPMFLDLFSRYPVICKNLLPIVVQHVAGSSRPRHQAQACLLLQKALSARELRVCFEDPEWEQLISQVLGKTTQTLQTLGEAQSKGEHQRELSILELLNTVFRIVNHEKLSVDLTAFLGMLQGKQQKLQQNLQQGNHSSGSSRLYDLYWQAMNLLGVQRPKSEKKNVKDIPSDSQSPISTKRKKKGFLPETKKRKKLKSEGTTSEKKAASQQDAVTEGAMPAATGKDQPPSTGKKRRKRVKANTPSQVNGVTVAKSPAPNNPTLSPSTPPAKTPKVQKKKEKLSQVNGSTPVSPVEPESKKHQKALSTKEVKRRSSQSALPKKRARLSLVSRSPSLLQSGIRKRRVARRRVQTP
Kind of test: Prep1-p160 co-immunoprecipitation in L6 cells. The format is cell-based. Here is the method: Figure 2 Effect of ceramides on Prep1 and p160 mRNA expression and of Prep1-p160 coprecipitation L6 cells were treated with C2cer (10μM) for 18h and Prep1 (A) or p160 (B) mRNA levels were analyzed by real-time RT-PCR analysis. Data were normalized by the amount of GAPDH mRNA, used as internal control. Bars represent the mean ± SD of three independent experiments, each performed in triplicate. (C) L6 cells were treated with cycloheximide (CHX) at 40μg/mL concentration for 18h and the lysates were analyzed by Western blot with anti-p160 and beta-actin. The autoradiograph shown is representative of three different experiments and subjected to densitometric analysis. […]
Figure 3 Design and in vitro effects of Prep1(54-72) peptide on Prep1/p160 association (A) Binding curves of Prep1(59-72) and Prep1(54-72) peptides to p160_20-160 by ELISA-like assays. […] (C) L6 cells were incubated with increasing concentrations of the fluorescein-conjugated peptide (FITC-Prep1(54-72)) and peptide uptake was detected by FACS analysis of fluorescein-labeled cells. […] Protein lysates were immunoprecipitated with Prep1 antibodies and analyzed by Western blot using antibodies for p160 or for Prep1. […] The blots were detected by ECL and autoradiography. […]
Total cell lysates were obtained and separated by SDS-PAGE. […] The protein concentrations in the cell lysates were measured using a Bio-Rad DC (detergent compatible) assay. […]

Test [1] has as its system PGC-1α and GLUT4 protein expression. In words: PGC-1α and GLUT4 protein expression, Western blot. The format is cell-based, rat. Here is the method: Figure 5 Effect of Prep1(54-72) peptide on Akt phosphorylation and PGC-1α and GLUT4 protein levels (A-B) L6 control and Prep1 overexpressing cells were stimulated with Insulin (100nM) and/or C2cer (10μM) and incubated with Prep1(54-72). Protein lysates were analyzed by Western blot using antibodies for pAkt, Akt and for the beta-actin, as a loading control. (C) PGC-1α and GLUT4 protein levels were measured by using specific antibodies for these proteins and beta-actin antibody was used as loading control. Blots were detected by ECL and autoradiography. The autoradiographs are representative of four independent experiments. Asterisks denote statistically significant differences (*p<0.05; **p<0.01; ***p<0.001).
Total cell lysates were obtained and separated by SDS-PAGE. Briefly, cells were solubilized with lysis buffer containing 50mM HEPES, 150mM NaCl, 10mM EDTA, 10mM Na4P2O7, 2mM sodium orthovanadate, 50mM NaF, 1mM phenylmethylsulfonyl fluoride, 10μg/ml aprotinin, 10μg/ml leupeptin, pH 7.4, and 1% (v/v) Triton X-100. Lysates were clarified by centrifugation at 12,000g for 20 minutes at 4°C. The protein concentrations in the cell lysates were measured using a Bio-Rad DC (detergent compatible) assay. Immunoprecipitation and Western blot analysis have been performed as previously described.

Experimental findings from article PMC5641094, “A peptide antagonist of Prep1-p160 interaction improves ceramide-induced insulin resistance in skeletal muscle cells” (Oncotarget, 2017) are described below.

For `CCCCCCCCCCCCC/C=C/[C@@H](O)[C@H](CO)NC(C)=O` [C2cer, D-erythro-Sphingosine, N-Acetyl-, reference compound], on Prep1/p160 complex (C2cer), the “induction of Prep1-p160 association” value is 80%. In addition, the “decrease of PGC-1α and GLUT4 protein expression” value in test [1] (L6 cells incubated with C2cer 10μM) is “approximately 35%”.

On to “Ac-KQAIYRHPLFPLLALLFEK-NH2 [Prep1(54-72)]”, for which the “effect on ceramide-stimulated Prep1-p160 co-precipitation” value at Prep1/p160 complex (C2cer 10μM 18h, incubated with Prep1(54-72)) is “almost completely reverted”. Also, the “effect on decreased PGC-1α and GLUT4 protein expression” value in test [1] (L6 cells with C2cer or Prep1 overexpression, Prep1(54-72)) is “significantly reverted”.
